Values of other authors, collected in patent US20100168247A1, “SOLID COMPOSITES OF A CALCIUM RECEPTOR-ACTIVE COMPOUND” (TEVA PHARMACEUTICAL INDUSTRIES LTD., priority 2006, published 2010).

- solubility (pH 1): about 0.1 mg/ml
- solubility in water (pH 7): less than 1 μg/ml
SMILES: C[C@@H](NCCCc1cccc(C(F)(F)F)c1)c1cccc2ccccc12.Cl [cinacalcet, (R)—N-[1-(1-naphthyl)ethyl]-3-[3-(trifluoromethyl)phenyl]propan-1-amine hydrochloride]
